Tests used:
[1] = target: T1, GDP-loaded HIS-KRAS (G12D, aa 1-169) (Homo sapiens, UniProt P01116, G12D); experiment: SOS1 catalyzed nucleotide exchange assay; assay type: biochemical; conditions: SOS1 ExD, TR-FRET, 4 hours at 25° C.
T1 construct: GDP-loaded HIS-KRAS (G12D, aa 1-169)
Method in brief: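 Compound was preincubated 15 min with 1.5 nM GDP-loaded KRAS G12D (final 5 nM GDP). SOS1 ExD (aa 564-1049, 0.5 µM), 80 nM BODIPY FL GTP and anti-His Tb antibody were then added for 4 h at 25 °C. The TR-FRET 515/486 ratio was normalized between DMSO and no-KRAS wells, and IC50 came from 4-parameter fits.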

[2] = target: T2, GppNp-loaded HIS-KRAS (G12D, aa 1-169) / cRAF RBD (Homo sapiens, UniProt P01116, G12D); experiment: GTP-KRAS and cRAF interaction assay; assay type: binding; conditions: HTRF, 2 hours at 25° C.
T2 construct: GppNp-loaded HIS-KRAS (G12D, aa 1-169)
Method in brief: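 GppNp-loaded KRAS G12D (2.0 nM) preincubated 15 min with compound, then cRAF RBD (35 nM) and HTRF antibodies added for 2 h at 25° C with 100 μM GTP final. Ratios normalized to DMSO and no-KRAS controls; IC50 by 4-parameter fit.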

[3] = test system: AGS cells expressing KRAS G12D; experiment: Phospho-ERK1/2(THR202/TYR204) HTRF assay; assay type: cell-based; conditions: Homo sapiens, 2 hours incubation, read-out: AGS p-ERK IC50
Protocol: AGS cells expressing KRAS G12D were cultured in F12K medium (Gibco) containing 10% fetal bovine serum (Gibco). The AGS cells in culture medium were seeded in 96-well plates at a concentration of 40,000 cells/well and then put in a 37° C./5% CO2 cell incubator to incubate overnight. The next day, culture medium was removed and the compound diluted in assay medium (F12K, 0.1% FBS) was added in each well. After 2 hours incubation in a 37° C./5% CO2 cell incubator, the assay medium in 96-well plates was removed, then 50 μL of 1× blocking reagent-supplemented lysis buffer (Cisbio) was added and the plates were incubated at 25° C. for 45 min with shaking. 10 μL of cell lysates from the 96-well plates were transferred to a 384-well plate (Greiner) containing 2.5 μL/well HTRF® pre-mixed antibodies (Cisbio 64AERPEH). Incubate 4 hours at 25° C. and then read HTRF signals on Tecan Spark multimode microplate reader. The data were analyzed using a 4-parameter logistic model to calculate IC50 values.

AGS = experiment: Cell growth inhibition assay (AGS); assay type: cell-based; conditions: Homo sapiens, 144 h, 6 days incubation, CellTiter-Glo
Protocol: (§1) 4. Cell Growth Inhibition Assay
AGS cultured in F12K medium (Gibco) containing 10% fetal bovine serum (Gibco). Cells in culture medium were plated in 96-well plates at a concentration of 500 cells/well ([…]) and allowed to attach overnight.
(§2) The next day, compounds were diluted in culture medium and added to the plates. After 6 days incubation in a 37° C./5% CO2 cell incubator, the cell viability was detected by CellTiter-Glo® Luminescent Cell Viability Assay kit (Promega). Luminescent signals were read on Tecan Spark multimode microplate reader and analyzed using a 4-parameter logistic model to calculate IC50 values.

AsPC-1 = experiment: Cell growth inhibition assay (AsPC-1); assay type: cell-based; conditions: Homo sapiens, ASPC1, 144 h; AsPC-1, 6 days incubation, CellTiter-Glo
Protocol: as §1
AsPC-1 cultured in RPMI-1640 medium (Gibco) containing 10% fetal bovine serum (Gibco). Cells in culture medium were plated in 96-well plates at a concentration of 1000 cells/well ([…]) and allowed to attach overnight.
as §2

T2 sequence (P01116 1-169 isoform P01116-2 G12D): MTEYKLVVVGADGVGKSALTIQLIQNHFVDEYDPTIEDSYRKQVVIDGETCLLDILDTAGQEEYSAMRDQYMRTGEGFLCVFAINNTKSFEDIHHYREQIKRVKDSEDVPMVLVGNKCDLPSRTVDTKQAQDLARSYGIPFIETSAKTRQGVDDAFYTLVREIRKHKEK
T1 sequence (P01116 1-169 isoform P01116-2 G12D): as above

Question: For `C#Cc1cccc2cc(O)cc(-c3c(F)cc4c(N5CC6CCC(C5)N6)nc(OCC5(CN6CC[S+]([O-])CC6)CC5)nc4c3F)c12` [Compound 89], which IC50 [1] is on record?
Answer: 20.5 nM

Question: And the IC50 [2]?
Answer: 1940 nM

Question: What about the IC50 [3] of the same compound?
Answer: > 1000 nM

Question: And the IC50 (AGS)?
Answer: 14.9 nM

Question: What about the IC50 (AsPC-1) of the same compound?
Answer: 96.6 nM

Question: What does the source list for `Oc1cc(-c2c(Cl)cc3c(N4CC5CCC(C4)N5)nc(OCC45CCCN4C[C@H](F)C5)nc3c2F)c2c(Cl)cccc2c1` (stereo partly drawn) [Compound 90]?
Answer: IC50 [1]: 5.35 nM; IC50 [2]: 84.8 nM; IC50 [3]: 12.4 nM; IC50 (AGS): 14.6 nM; IC50 (AsPC-1): 100 nM

Question: What does the source list for `CCc1cccc2cc(O)cc(-c3ccc4c(N5CC6CCC(C5)N6)nc(OC[C@@]56CCCN5C[C@H](F)C6)nc4c3F)c12` [Compound 91]?
Answer: IC50 [1]: 4.82 nM; IC50 [2]: 102 nM; IC50 [3]: 8.54 nM; IC50 (AGS): 12.3 nM; IC50 (AsPC-1): 31.6 nM

Question: Which IC50 [1] does the source give for `C#Cc1c(OC)ccc2cc(O)cc(-c3ccc4c(N5CC6CCC(C5)N6)nc(OCC5(CN6CCOCC6)CC5)nc4c3F)c12` [Compound 94] here?
Answer: 5.34 nM

Question: And the IC50 [2]?
Answer: 2520 nM

Question: And the IC50 [3]?
Answer: 28.5 nM

Question: And the IC50 (AGS)?
Answer: 333 nM

Question: What about the IC50 (AsPC-1) of the same compound?
Answer: 1150 nM

Question: Which IC50 [1] does the source give for `N#Cc1c(N)sc2c(F)ccc(-c3ccc4c(N5CC6CCC(C5)N6)nc(OCC5(CN6CCOCC6)CC5)nc4c3F)c12` [Compound 95] here?
Answer: 3.28 nM

Question: What about the IC50 [2] of the same compound?
Answer: 388 nM

Question: And the IC50 [3]?
Answer: > 200 nM

Question: And the IC50 (AGS)?
Answer: 52.7 nM

Question: What about the IC50 (AsPC-1) of the same compound?
Answer: 572 nM

Question: How did the IC50 [1] turn out when `C#Cc1cccc2cc(O)cc(-c3ccc4c(N5CC6CCC(C5)N6)nc(OC[C@@]56CCCN5C[C@H](F)C6)nc4c3)c12` [Compound 96] was run?
Answer: 29.5 nM

Question: And the IC50 [2]?
Answer: 146 nM

Question: What about the IC50 [3] of the same compound?
Answer: 34.2 nM

Question: And the IC50 (AGS)?
Answer: 205 nM

Question: And the IC50 (AsPC-1)?
Answer: 394 nM

Question: How did the IC50 [1] turn out when `C#Cc1cccc2cc(O)cc(-c3cc4nc(OC[C@@]56CCCN5C[C@H](F)C6)nc(N5CC6CCC(C5)N6)c4cc3Cl)c12` [Compound 97] was run?
Answer: 7.64 nM

Question: And the IC50 [2]?
Answer: 44.6 nM

Question: What about the IC50 [3] of the same compound?
Answer: 5.22 nM

Question: What about the IC50 (AGS) of the same compound?
Answer: 45.3 nM

Question: And the IC50 (AsPC-1)?
Answer: 127 nM

Question: For `C#Cc1cccc2cc(O)cc(-c3c(C(F)(F)F)cc4c(N5CC6CCC(C5)N6)nc(OCC5(CN6CCOCC6)CC5)nc4c3F)c12` [Compound 98], which IC50 [1] is on record?
Answer: 1.29 nM

Question: What about the IC50 [2] of the same compound?
Answer: 20.1 nM

Question: And the IC50 [3]?
Answer: 13.7 nM

Question: What about the IC50 (AGS) of the same compound?
Answer: 18 nM

Question: And the IC50 (AsPC-1)?
Answer: 69.7 nM

Question: Which results are given for `C#Cc1c(F)ccc2cc(O)cc(-c3c(Cl)cc4c(C5CC6CCC(C5)N6)nc(OC[C@@]56CCCN5C[C@H](F)C6)nc4c3F)c12` (stereo partly drawn) [Compound 100]?
Answer: IC50 [1]: 5.93 nM; IC50 [2]: 55 nM; IC50 [3]: 1.71 nM; IC50 (AGS): 5.68 nM; IC50 (AsPC-1): 33 nM

Question: Which IC50 [1] does the source give for `C#Cc1cccc2cc(O)cc(-c3c(F)cc4c(N5CC6CCC(C5)N6)nc(OCC5(CN6CCOCC6)CC5)nc4c3C)c12` [Compound 101] here?
Answer: 1.59 nM

Question: What about the IC50 [2] of the same compound?
Answer: 277 nM

Question: What about the IC50 [3] of the same compound?
Answer: 125 nM

Question: What about the IC50 (AGS) of the same compound?
Answer: 39.6 nM

Question: And the IC50 (AsPC-1)?
Answer: 113 nM

Question: How did the IC50 [1] turn out when `C#Cc1cccc2cc(O)cc(-c3c(CO)cc4c(N5CC6CCC(C5)N6)nc(OCC5(CN6CCOCC6)CC5)nc4c3F)c12` [Compound 102] was run?
Answer: 6.42 nM

Question: And the IC50 [2]?
Answer: 74.2 nM

Question: And the IC50 [3]?
Answer: 40.4 nM

Question: And the IC50 (AGS)?
Answer: 82.5 nM

Question: What about the IC50 (AsPC-1) of the same compound?
Answer: 1940 nM

Question: Which IC50 [1] does the source give for `C#Cc1cccc2cc(O)cc(-c3c(C(=C)C)cc4c(N5CC6CCC(C5)N6)nc(OCC5(CN6CCOCC6)CC5)nc4c3F)c12` [Compound 105] here?
Answer: 1.57 nM

Question: What about the IC50 [2] of the same compound?
Answer: 15.6 nM

Question: And the IC50 [3]?
Answer: 13 nM

Question: What about the IC50 (AGS) of the same compound?
Answer: 18.4 nM

Question: What about the IC50 (AsPC-1) of the same compound?
Answer: 63.3 nM

Question: Which IC50 [1] does the source give for `C#Cc1c(F)ccc2cc(O)cc(-c3c(C(C)C)cc4c(N5CC6CCC(C5)N6)nc(OCC5(CN6CCOCC6)CC5)nc4c3F)c12` [Compound 106] here?
Answer: 0.332 nM

Question: And the IC50 [2]?
Answer: 1.3 nM

Question: What about the IC50 [3] of the same compound?
Answer: 8.6 nM

Question: What about the IC50 (AGS) of the same compound?
Answer: 1.8 nM

Question: And the IC50 (AsPC-1)?
Answer: 12.8 nM

Question: `C#Cc1cccc2cc(O)cc(-c3c(Cl)cc4c(N5CC6CCC(C5)N6)nc(OCC5(CN6CCOCC6)CC5)nc4c3Cl)c12` [Compound 107] was tested. Which IC50 [1] did it give?
Answer: 4.11 nM

Question: And the IC50 [2]?
Answer: 524 nM

Question: What about the IC50 [3] of the same compound?
Answer: 140 nM

Question: And the IC50 (AGS)?
Answer: 107 nM

Question: And the IC50 (AsPC-1)?
Answer: 282 nM

Question: What does the source list for `C#Cc1cccc2cc(O)cc(-c3cc4nc(OCC5(CN6CCOCC6)CC5)nc(N5CC6CCC(C5)N6)c4cc3F)c12` [Compound 108]?
Answer: IC50 [1]: 28.1 nM; IC50 [2]: 298 nM; IC50 [3]: 19 nM; IC50 (AGS): 21.9 nM; IC50 (AsPC-1): 63.6 nM
